Where “and” joins values, the source holds several entries; their conditions need not be identical. Equal entries are not always repeated.
Test system: winter wheat (Vershin variety)
Assay: Winter wheat seed treatment with BHMPA salts: germinating power (length and mass of roots and sprouts)
Type: in vivo
Summary of the method: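 Seeds (50 per Petri dish on two layers of filter paper) soaked 1 h in BHMPA or its Ca, Mg, Na, Co, Mn, Cu or Zn salts at 1·10^−6-1·10^−12%, with water controls. Germination energy read on day 4, germination on day 8 (wheat) or day 7 (rice, corn), as % means of four replicates. Germinating power taken as root and sprout length plus wet and dry mass per 100 seedlings.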

Substance: Copper BHMPA Salt [Cu-salt]
- effectiveness on germinating power (1·10^−6% and 1·10^−12% solutions): weren't effective
- Length, root (1·10^−6% solution): 4.6 cm
- Length, root, + % to control (1·10^−6% solution): −4%
- Length, sprout (1·10^−6% solution): 3.8 cm
- Length, sprout, + % to control (1·10^−6% solution): −5%
- Mass, dry, root (1·10^−6% solution): 0.41 g/100 plantlings
- Mass, dry, root, + % to control (1·10^−6% solution): −2%
- Mass, dry, sprout (1·10^−6% solution): 0.35 g/100 plantlings
- Mass, dry, sprout, + % to control (1·10^−6% solution): −5%
- Mass, wet, root (1·10^−6% solution): 2.61 g/100 plantlings
- Mass, wet, root, + % to control (1·10^−6% solution): −7%
- Mass, wet, sprout (1·10^−6% solution): 2.70 g/100 plantlings
- Mass, wet, sprout, + % to control (1·10^−6% solution): 1.5%
- Length, root (1·10^−7% solution): 4.9 cm
- Length, root, + % to control (1·10^−7% solution): 2%
- Length, sprout (1·10^−7% solution): 4.0 cm
- Length, sprout, + % to control (1·10^−7% solution): 0%
- Mass, dry, root (1·10^−7% solution): 0.44 g/100 plantlings
- Mass, dry, root, + % to control (1·10^−7% solution): 2%
- Mass, dry, sprout (1·10^−7% solution): 0.40 g/100 plantlings
- Mass, dry, sprout, + % to control (1·10^−7% solution): 8%
- Mass, wet, root (1·10^−7% solution): 3.35 g/100 plantlings
- Mass, wet, root, + % to control (1·10^−7% solution): 19%
- Mass, wet, sprout (1·10^−7% solution): 3.05 g/100 plantlings
- Mass, wet, sprout, + % to control (1·10^−7% solution): 15%
- Length, root (1·10^−8% solution): 5.1 cm
- Length, root, + % to control (1·10^−8% solution): 6%
- Length, sprout (1·10^−8% solution): 4.1 cm
- Length, sprout, + % to control (1·10^−8% solution): 2.5%
- Mass, dry, root (1·10^−8% solution): 0.47 g/100 plantlings
- Mass, dry, root, + % to control (1·10^−8% solution): 9%
- Mass, dry, sprout (1·10^−8% solution): 0.46 g/100 plantlings
- Mass, dry, sprout, + % to control (1·10^−8% solution): 24%
- Mass, wet, root (1·10^−8% solution): 3.68 g/100 plantlings
- Mass, wet, root, + % to control (1·10^−8% solution): 31%
- Mass, wet, sprout (1·10^−8% solution): 3.22 g/100 plantlings
- Mass, wet, sprout, + % to control (1·10^−8% solution): 21%
- Length, root (1·10^−9% solution): 5.6 cm
- Length, root, + % to control (1·10^−9% solution): 17%
- Length, sprout (1·10^−9% solution): 4.7 cm
- Length, sprout, + % to control (1·10^−9% solution): 17% and 17.5%
- Mass, dry, root (1·10^−9% solution): 0.60 g/100 plantlings
- Mass, dry, root, + % to control (1·10^−9% solution): 39.5%
- Mass, dry, sprout (1·10^−9% solution): 0.50 g/100 plantlings
- Mass, dry, sprout, + % to control (1·10^−9% solution): 35%
- Mass, wet, root (1·10^−9% solution): 4.13 g/100 plantlings
- Mass, wet, root, + % to control (1·10^−9% solution): 47%
- Mass, wet, sprout (1·10^−9% solution): 3.61 g/100 plantlings
- Mass, wet, sprout, + % to control (1·10^−9% solution): 36%
- Length, root (1·10^−10% solution): 5.3 cm
- Length, root, + % to control (1·10^−10% solution): 10%
- Length, sprout (1·10^−10% solution): 4.4 cm
- Length, sprout, + % to control (1·10^−10% solution): 10%
- Mass, dry, root (1·10^−10% solution): 0.49 g/100 plantlings
- Mass, dry, root, + % to control (1·10^−10% solution): 14%
- Mass, dry, sprout (1·10^−10% solution): 0.48 g/100 plantlings
- Mass, dry, sprout, + % to control (1·10^−10% solution): 30%
- Mass, wet, root (1·10^−10% solution): 3.75 g/100 plantlings
- Mass, wet, root, + % to control (1·10^−10% solution): 33.5%
- Mass, wet, sprout (1·10^−10% solution): 3.34 g/100 plantlings
- Mass, wet, sprout, + % to control (1·10^−10% solution): 25.5%
- Length, root (1·10^−11% solution): 5.1 cm
- Length, root, + % to control (1·10^−11% solution): 6%
- Length, sprout (1·10^−11% solution): 4.1 cm
- Length, sprout, + % to control (1·10^−11% solution): 2.5%
- Mass, dry, root (1·10^−11% solution): 0.46 g/100 plantlings

Reference: US10781224B2, “Bis(oxymethyl)phosphinic acid and biogenic metal salts thereof as regulators of plant growth and development” (priority 2016, dated 2020)
